Measured values reported in patent EP0782989A1, “INDOLE DERIVATIVES” (KYOWA HAKKO KOGYO CO., LTD., priority 1995, dated 1997).
Where a name gives a salt, the structure may show the parent alone.

Columns and labels:
ovariectomized rats [1] = assay: Inhibitory effect on the increase of urinary hydroxyproline excretion by ovariectomy; assay type: in vivo, SD strain rats; settings: Rattus norvegicus, po, 336 h; 10 mg/kg orally once a day for two weeks after ovariectomy; hydroxyproline/creatinine molar ratio in 24 hours urine; read-out: Inhibition rate of increase of the amount of urinary hydroxyproline excretion
Protocol: The inhibitory effect of the compounds of the present application on bone resorption was also determined by their inhibitory effect on the excretion of urinary hydroxyproline which is elevated by ovariectomy of the animals tested, according to the report of Kalu et al. [Bone and Mineral., 14, 175 (1991)].
Test Example 2: Inhibitory effect on the increase of urinary hydroxyproline excretion by ovariectomy
12-weeks-old female SD strain rats (Japan Clea Co., Ltd.) were acclimated for 1 week during which they were given tap water and a standard diet (F2; Funabashi Farmas) ad libitum. The experiment was carried out using the rats weighing 270-310 g. After the animals were subjected to sham operation or bilateral ovariectomy, they were allowed free access to water passed through ion exchange resin instead of tap water, and were housed in individual cages. The test compound (10 mg/kg) was suspended in 0.3% Tween or 0.5% methylcellulose, and the obtained suspension was orally administered to the ovariectomized rats once a day for two weeks starting from the day following ovariectomy (0.5 ml/100 g body weight). 0.3% Tween or 0.5% methylcellulose was similarly administered to sham-operated rats and ovariectomized control rats. After the final administration, the rats were placed in individual metabolic cages and fasted during 24 hours, and urine was collected. The volume of the collected urine was measured and the urine was centrifuged at 3,000 rpm for 15 min at 4°C. The concentration of hydroxyproline in the supernatant was measured by the method of Ikeda et al. [Ann. […] P. H., 36, 277-282 (1985)] and the concentration of creatinine in the supernatant was measured with creatinine test WAKO (Wako Pure Chem.) The amount of urinary hydroxyproline excretion was expressed by the molar ratio of the amount of hydroxyproline to the amount of creatinine. The rate of inhibition on increase of the amount of urinary hydroxyproline excretion in ovariectomized rats treated with the test compound compared to that of the control group was calculated using the following equation. Inhibition rate (%) = [(P1 - P2)/(P1 - P3)] x 100 [formula] • P1 : The amount of urinary hydroxyproline excretion in ovariectomized rats treated with 0.3% Tween (µmol/mmol). • P2 : The amount of urinary hydroxyproline excretion in ovariectomized rats treated with the test compound (µmol/mmol). • P3 : The amount of urinary hydroxyproline in sham-operated rats treated with 0.3% Tween (µmol/mmol).

PTH enhanced bone = assay: Inhibitory effect on bone absorption (calcium liberation from PTH enhanced cultured calvaria); assay type: cell-based, newborn dd mouse; settings: Mus musculus; calvaria culture with PTH 1 x 10^-8M, 96 hours, total calcium in the culture; test compound 3 x 10^-6M, 1 x 10^-5M, 3 x 10^-5M
Protocol: Test Example 1: Inhibitory effect on bone absorption The calvaria was excised from a newborn dd mouse (5 to 6 days old) under sterile conditions. The calvaria was washed with a modified Dulbecco phosphate buffer physiological saline solution containing neither calcium nor magnesium (a product of Gibco Oriental), and divided into two parts along the center suture. A half of the calvaria was cultivated in a modified Dulbecco Eagle medium (1.5 ml) (a product of Gibco Oriental) containing 2.5% fetal calf serum and 15% equine serum which had been inactivated by heating at 56°C for 20 minutes. The test compound was dissolved in dimethyl sulfoxide and 10 μl of the resulting solution was added to the culture medium to give the final concentrations of 3 x 10^-6M, 1 x 10^-5M, and 3 x 10^-5M. PTH (parathyroid hormone) was dissolved in a 0.15 M saline solution (pH 3) and 3 μl of the resulting solution was added to the culture medium to give the final concentration of 1 x 10^-8M. The culturing was carried out under the condition of 95% air and 5% carbon dioxide and at a temperature of 37°C for 96 hours. At 48 hours after the start of the culturing, the culture medium was renewed and the test compound and PTH treated as defined above were added thereto. For examining the effect of the test compound on calcium liberation (bone absorption) from the PTH enhanced bone, a control group, a group using PTH (1 x 10^-8M), and a group using both the test compound (3 […]) and PTH were prepared. The amount of the bone absorption was determined by measuring the amount of calcium accumulated in the culture as collected after 96 hours of culturing. The total calcium concentration in the culture was measured with Calcium C Test Wako. The inhibition rate was calculated using the following equation and the result was shown in terms of 50% inhibitory concentration (IC50). Inhibition of bone absorption from PTH enhanced bone Inhibition rate (%) = [(CP - CD )/(CP - C0 )] x 100 [formula] • C0 : The total calcium concentration in the culture containing neither the test compound nor PTH. • CP : The total calcium concentration in the culture treated with only PTH. • CD : The total calcium concentration in the culture treated with both the test compound and PTH.

ovariectomized rats [2] = assay: Inhibitory effect on decrease of bone density by ovariectomy (tibia, DEXA); assay type: in vivo, SD strain rats; settings: 10 mg/kg orally once a day for 6 weeks
Protocol: Test Example 3: Inhibitory effect on decrease of bone density by ovariectomy
The experiment was carried out using 13-weeks-old female SD strain rats (Japan Crea Co. Ltd.) The animals were subjected to sham operation or bilateral ovariectomy under Nembutal anesthesia. The test compound (10 mg/kg) was dissolved or suspended in 0.5% methylcellulose (Shin-Etsu Chemical Co., Ltd.) and administered orally once a day from the first day after the operation for 6 weeks. For the sham-operated group and the ovariectomized control group, 0.5% methylcellulose (Shin-Etsu Chemical Co., Ltd.) was administered orally. The rat was slaughtered by femoral artery bleeding, the right hindlimb was ablated, and then the bone mineral content (BMC) and bone density (BD) of the tibia was measured according to a DEXA (DXA) method [Japan Clinic, 52 (9), 2329-2334 (1994)] using bone mineral measuring apparatus DCS-600 (Aloka Co., Ltd.). Tibial BMC and BD in the sham-operated, ovariectomized control, and test compound-treated ovariectomized group are shown in Table 4.

Row | Structure (SMILES) | inhibition in vivo at 10 mg/kg (ovariectomized rats [1]) [%] | IC50 (PTH enhanced bone) [µM] | BD (mg/cm^2) (ovariectomized rats [2]; tibia bone density) | BMC (ovariectomized rats [2]; tibia bone mineral content) [mg]
1 | O=C(c1c(C(c2ccccc2)c2ccccc2)c2ccccc2n1CCN1CCCC1)N1CCN(c2ccccc2Cl)CC1 [Compound 4, 2-[4-(2-Chlorophenyl)piperazinylcarbonyl]-3-(diphenylmethyl)-1-(2-pyrrolidinylethyl)indole] | 43 | – | – | –
2 | CN(C)CCn1c(C(=O)O)c(C(c2ccccc2)c2ccccc2)c2ccccc21 [Compound 6, 1-(2-Dimethylaminoethyl)-3-(diphenylmethyl)indole-2-carboxylic acid] | 100 | – | – | –
3 | CC(C)NC(=O)c1c(C(c2ccccc2)c2ccccc2)c2ccccc2n1CCN(C)C [Compound 8, N-Isopropyl-1-(2-dimethylaminoethyl)-3-(diphenylmethyl)indole-2-carboxamide] | 100 | 14.3 | – | –
4 | CN(C)CCn1c(C(=O)N2CCCCC2)c(C(c2ccccc2)c2ccccc2)c2ccccc21 [Compound 10, 1-(2-Dimethylaminoethyl)-3-(diphenylmethyl)-2-(piperidinocarbonyl)indole] | – | 9.1 | – | –
5 | CN(C)CCn1c(C(=O)NC2CCCCCC2)c(C(c2ccccc2)c2ccccc2)c2ccccc21 [Compound 11, N-Cycloheptyl-1-(2-dimethylaminoethyl)-3-(diphenylmethyl)indole-2-carboxamide] | 100 | 17.5 | – | –
6 | CN(C)CCn1c(C(=O)N2CCOCC2)c(C(c2ccccc2)c2ccccc2)c2ccccc21 [Compound 13, 1-(2-Dimethylaminoethyl)-3-(diphenylmethyl)-2-(morpholinocarbonyl)indole] | – | 11.2 | – | –
7 | CN(C)CCn1c(C(=O)N2CCN(c3ccccc3)CC2)c(C(c2ccccc2)c2ccccc2)c2ccccc21 [Compound 14, 1-(2-Dimethylaminoethyl)-3-(diphenylmethyl)-2-(4-phenylpiperazinylcarbonyl)indole] | – | 10.9 | – | –
8 | CN(C)CCn1c(C(=O)N2CCN(Cc3ccccc3)CC2)c(C(c2ccccc2)c2ccccc2)c2ccccc21 [Compound 15, 2-(4-Benzylpiperazinylcarbonyl)-1-(2-dimethylaminoethyl)-3-(diphenylmethyl)indole] | 100 | 14.3 | – | –
9 | CN(C)CCn1c(C(=O)NCCCN2CCOCC2)c(C(c2ccccc2)c2ccccc2)c2ccccc21 [Compound 20, N-(3-Morpholinopropyl)-1-(2-dimethylaminoethyl)-3-(diphenylmethyl)indole-2-carboxamide] | 100 | 3.7 | – | –
10 | CN(C)CCn1c(C(=O)NCCCN2CCCC2=O)c(C(c2ccccc2)c2ccccc2)c2ccccc21 [Compound 21, N-[3-(2-Oxopyrrolidinyl)propyl]-1-(2-dimethylaminoethyl)-3-(diphenylmethyl)indole-2-carboxamide] | 100 | 14.3 | 126.95 ± 1.78 | 268.81 ± 7.38
11 | CN(C)CCn1c(C(=O)NCCCn2ccnc2)c(C(c2ccccc2)c2ccccc2)c2ccccc21 [Compound 22, N-[3-(1-Imidazolyl)propyl]-1-(2-dimethylaminoethyl)-3-(diphenylmethyl)indole-2-carboxamide] | 87 | 13.7 | – | –
12 | CN(C)CCn1c(C(=O)NC2CC2)c(C(c2ccccc2)c2ccccc2)c2ccccc21 [Compound 51, N-Cyclopropyl-1-(2-dimethylaminoethyl)-3-(diphenylmethyl)indole-2-carboxamide hydrochloride] | 70 | – | – | –
13 | CNC(=O)c1c(C(c2ccccc2)c2ccccc2)c2ccccc2n1CCN(C)C [Compound 56, N-Methyl-1-(2-dimethylaminoethyl)-3-(diphenylmethyl)indole-2-carboxamide hydrochloride] | 57 | 13 | – | –
14 | O=C(NCCN1CCCCC1)c1c(C(c2ccccc2)c2ccccc2)c2ccccc2n1CCN1CCCC1 [Compound 62, N-(2-Piperidinoethyl)-3-(diphenylmethyl)-1-(2-pyrrolidinylethyl)indole-2-carboxamide 2 hydrochloride] | 53 | 18.1 | – | –
15 | CCOC(=O)c1c(C(c2ccccc2)c2ccccc2)c2ccccc2n1CCCN(C)C [Compound 64, Ethyl 1-(3-dimethylaminopropyl)-3-(diphenylmethyl)indole-2-carboxylate] | 77 | 16.7 | – | –
16 | CCCc1ccc(NC(=O)c2c(C(c3ccc(Cl)cc3)c3ccc(Cl)cc3)c3ccccc3n2CCN(C)C)cc1 [Compound 97, N-(4-propylphenyl)-3-[bis(4-chlorophenyl)methyl]-1-(2-dimethylaminoethyl)indole-2-carboxamide hydrochloride] | 40 | 14.3 | – | –
17 | CCOC(=O)c1c(C(c2ccc(C)cc2)c2ccc(C)cc2)c2ccccc2n1CCN1CCCCC1 [Compound 98, Ethyl 3-[bis(4-methylphenyl)methyl]-1-(2-piperidinoethyl)indole-2-carboxylate] | 47 | – | – | –
18 | CC(C)NC(=O)c1c(C(c2ccccc2)c2ccc(O)cc2)c2ccccc2n1CCN(C)C (centres unmarked) [Compound 119, N-Isopropyl-1-(2-dimethylaminoethyl)-3-(4-hydroxybenzhydryl)indole-2-carboxamide hydrochloride] | – | 10.8 | – | –
19 | CCCc1ccc(NC(=O)c2c(C(c3ccccc3)c3ccc(O)cc3)c3ccccc3n2CCN(C)C)cc1 (centres unmarked) [Compound 120, N-(4-Propylphenyl)-1-(2-dimethylaminoethyl)-3-(4-hydroxybenzhydryl)indole-2-carboxamide hydrochloride] | – | 10.5 | – | –
20 | CN(C)CCn1c(C(=O)NCCCN2CCOCC2)c(C(c2ccccc2)c2ccc(O)cc2)c2ccccc21 (centres unmarked) [Compound 121, N-(3-Morpholinopropyl)-1-(2-dimethylaminoethyl)-3-(4-hydroxybenzhydryl)indole-2-carboxamide 2 hydrochloride] | 59 | – | – | –
